Test system: Oct4-introduced Sox10::eGFP fibroblasts
Experiment: FACS analysis of Sox10::eGFP reporter expression after low molecular weight substance treatment
Type: cell-based, human
Settings: 10 μM forskolin added to ATVP medium
From the text: The inventors have established conditions capable of inducing neural stem cells from mouse cells only with a low molecular weight substance without gene introduction (KR 10-1357402). Accordingly, to establish new conditions capable of inducing human somatic cells into OPCs on the basis of the low molecular weight substance that had been established in the previous study, a low molecular weight substance was selected using a Sox10 reporter system (Sox10::eGFP), which is a gene known to be important in development of oligodendrocytes (FIG. 1). When Oct4 gene-introduced cells were cultured in a reprogramming medium (RM: DMEM with high Glucose+5% knock out serum replacement (KSR)+1% penicillin/streptomycin+1% non-essential amino acids+20 ng/ml basic FGF (bFGF)+20 ng/ml human recombinant platelet derived growth factor (PDGF)+50 μg/ml ascorbic acid), one week after induction, it was confirmed that a cell length was shorter and a cell size was smaller through mesenchymal to epithelial transition (MET), thereby forming an epithelial-like colony. […]

Compound: C=C[C@@]1(C)CC(=O)[C@]2(O)[C@@]3(C)[C@@H](O)CCC(C)(C)[C@@H]3[C@H](O)[C@H](OC(C)=O)[C@@]2(C)O1 [forskolin]
- Sox10::eGFP expression (GFP+ distribution, FACS): 3.31%

Reference: patent publication US11572540B2, “Method for inducing oligodendrocyte precursor cells from OCT4-induced human somatic cells through direct reprogramming” (Stemlab Inc., priority 2015, dated 2023)
